Earlier results on one substance are cited in patent US5252560A, “Cyclic imide derivatives, compositions and use” (Glaxo Inc., priority 1991, dated 1993).

The subject of this series is arthritis in a collagen-induced model. The conditions noted are these: large doses; collagen-induced model in the mouse.

Regarding “TIMP: the natural inhibitor of collagenase”, the severity of arthritis result is listed as “decreases the severity of arthritis”.
